One assay addresses T1, CK1α (Homo sapiens, UniProt P48729+Q96SW2).
T1 construct: effects of the compounds of the present disclosure on the expression of target proteins in cells; endogenous in cells; host or cells: human PBMCs (Milecell Biotechnologies)
The assay is described as follows: Western blot, degradation of substrate protein in hPBMCs. It counts as cell-based. Particulars: Western blot, 24 hours of compound treatment, compounds tested at 50 nM and 500 nM (concentration for the table not stated).

Another assay concerns the target T2, IKZF1 (Homo sapiens, UniProt Q13422+Q96SW2).
T2 construct: effects of the compounds of the present disclosure on the expression of target proteins in cells; endogenous in cells; host or cells: human PBMCs (Milecell Biotechnologies)
The assay is described as above. It counts as cell-based. As to conditions: Western blot, 24 hours of compound treatment, compounds tested at 50 nM and 500 nM (concentration for the table not stated).

A further assay addresses T3, IKZF2 (Homo sapiens, UniProt Q96SW2+Q9UKS7).
T3 construct: effects of the compounds of the present disclosure on the expression of target proteins in cells; endogenous in cells; host or cells: human PBMCs (Milecell Biotechnologies)
Described as above. It counts as cell-based. Particulars: Western blot, 24 hours of compound treatment, compounds tested at 50 nM and 500 nM (concentration for the table not stated). (A western blot detects proteins with antibodies after separation by electrophoresis.)

In another assay the target is T4, IKZF3 (Homo sapiens, UniProt Q96SW2+Q9UKT9).
T4 construct: effects of the compounds of the present disclosure on the expression of target proteins in cells; endogenous in cells; host or cells: human PBMCs (Milecell Biotechnologies)
Described as above. It counts as cell-based. Particulars: Western blot, 24 hours of compound treatment, compounds tested at 50 nM and 500 nM (concentration for the table not stated).

Another assay concerns the target T5, WEE1 (Homo sapiens, UniProt P30291+Q96SW2).
T5 construct: effects of the compounds of the present disclosure on the expression of target proteins in cells; endogenous in cells; host or cells: human PBMCs (Milecell Biotechnologies)
Described as above. It counts as cell-based. As to conditions: Western blot, 24 hours of compound treatment, compounds tested at 50 nM and 500 nM (concentration for the table not stated).

Another assay relates to GSPT1. The assay is described as above. It counts as cell-based, Human. Particulars: Western blot, 24 hours of compound treatment, compounds tested at 50 nM and 500 nM (concentration for the table not stated).
The target in assay [1] is T6, human Cereblon WT GST-tagged protein (Homo sapiens, UniProt Q96SW2).
T6 construct: purchased CISBIO 64BDCRBNPEH
The assay is described as follows: CRBN-binding affinity, HTRF (CEREBLON BINDING kit). As to conditions: CRBN binding, HTRF, 3 hours at room temperature; read-out: HTRF IC50. A general note: Time-resolved FRET reads energy transfer from a long-lived donor to a nearby acceptor.

For assay [2], the system named is Human multiple myeloma cell (MM.1S). The assay is described as follows: Tumor cell proliferation inhibition (CellTiter-Meiluncell luminescent cell viability assay). Particulars: Homo sapiens, MM1.S, 96 h, read-out: Inhibitory activity (IC50, nM) on tumor cell proliferation, MM.1S.
In assay [3] the test system is Human multiple myeloma peripheral blood B lymphocyte cell (RPMI-8226). The description is as above. As to conditions: RPMI-8226, 96 h; for IC50: read-out: Inhibitory activity (IC50, nM) on tumor cell proliferation, RPMI-8226.
Assay [4] relates to Human diffuse large B-cell lymphoma cell line: TMD8. Described as above. As to conditions: TMD8, 96 h, read-out: Inhibitory activity (IC50, nM) on tumor cell proliferation, TMD8.
Procedure: (§1) The tumor cells used herein were cultured in a cell culture medium listed in table 2 at 37°C in an incubator with 5% CO2. Prior to experimentation, all cell lines used were correctly identified by STR profiling, and tested negative for mycoplasma contamination using a mycoplasma detection kit through routine screenings.
(§2) The IC50 values of the compounds of the present disclosure (including the compounds in Table 1 and Examples) were determined using the CellTiter-Meiluncell Luminescent Cell Viability Assay Kit from Dalian Meilun Biotech Co., Ltd. The detailed procedure is as follows: Tumor cells were seeded in 96-well cell culture plates at the densities specified in Table 3. On the following day, the test compounds of the present disclosure were subjected to serial dilution. The dilution can be performed according to one of the following two methods: • (1) The first dilution method: The test compounds of the present disclosure (including the compounds in Table 1 and Examples) were subjected to 5-fold serial dilutions starting from a highest concentration of 2000 µM, resulting in a total of 9 concentrations from high to low (2000, 400, 80, 16, 3.2, 0.64, 0.128, 0.0256, 0.00512 µM). Subsequently, 0.5 µL of the test compound dilution was transferred into the 96-well plate containing the cells, with each well containing 100 µL of cell culture medium. […] Into the 96-well plate, the diluted test compounds and corresponding detection reagents were added, resulting in final test compound concentrations of 500 nM and 10 nM, respectively. The experimental procedure is described below using the diluted 2 µM test compound as an example.
0.5 µL of the aforementioned diluted compound of the present disclosure (including the compounds in Table 1 and Examples) was added to the seeded cells in 100 µL of medium, yielding a final test compound concentration of 10 nM. […] The growth inhibition curves for the compounds of the present disclosure were plotted using Prism GraphPad software, and the IC50 values were calculated therefrom.
For assay [5], the system named is Human myeloid monocytic leukemia cell (MV-4-11). The assay is described as above. As to conditions: MV4-11, 96 h.
Assay [6] concerns Human breast cancer cell (MCF-7). Described as above. Particulars: MCF7, 96 h.
The subject of assay [7] is Human T cell acute lymphoblastic leukemia cell (CCRF-CEM). The assay is described as above. Particulars: 96 h.
Procedure: as §1, §2
(§3) 0.5 µL of the aforementioned diluted compound of the present disclosure (including the compounds in Table 1 and Examples) was added to the seeded cells in 100 µL of medium, yielding a final test compound concentration of 10 nM. After the cells were treated with the compounds of the present disclosure for a specified period, the cell viability assay reagent was added to the culture medium according to the kit's instructions to determine cell viability. […] All controls were treated using the same procedure as the compounds of the present disclosure. The growth inhibition curves for the compounds of the present disclosure were plotted using Prism GraphPad software, and the IC50 values were calculated therefrom.
Assay [8] relates to Human acute myeloid leukemia cell line: Kasumi-1. Described as above. As to conditions: Kasumi 1, 96 h.
Procedure: as §1, §2, §3
Assay [9] concerns Human T lymphocytic leukemia cell line: Jurkat. The description is as above. Particulars: 96 h.
Assay [10] relates to Human monocytic leukemia cell line: THP-1. The assay is described as above. As to conditions: THP-1, 96 h.
Assay [11] concerns Human colon cancer cell line: SW620. Described as above. Particulars: SW-620, 96 h.
Procedure: as §1, §2, §3
Assay [12] has as its system Human malignant melanoma cell line: A375. Described as above. Particulars: A-375, 96 h.
Assay [13] concerns Human non-small cell lung cancer cell line: NCI-H1975. The description is as above. As to conditions: NCI-H1975, 96 h, read-out: Inhibitory activity (IC50, nM) on tumor cell proliferation, H1975.
Procedure: as §1, §2, §3
Assay [14] relates to Human mantle cell lymphoma cell line: JEKO-1. Described as above. As to conditions: JeKo-1, 96 h, read-out: Inhibitory activity (IC50, nM) on tumor cell proliferation, JEKO-1.
Procedure: as §1, §2, §3
Assay [15] has as its system Human gastric cancer cell line: MGC803. The assay is described as above. As to conditions: MGC-803, read-out: Inhibitory activity (IC50, nM) on tumor cell proliferation, MGC803.
Procedure: as §2, §3
Setting [16] is: read-out: Inhibition Rate at 10 nM (%).
Where [17] appears, read: read-out: Inhibition Rate at 500 nM (%).

T2 sequence (Q13422 whole entry): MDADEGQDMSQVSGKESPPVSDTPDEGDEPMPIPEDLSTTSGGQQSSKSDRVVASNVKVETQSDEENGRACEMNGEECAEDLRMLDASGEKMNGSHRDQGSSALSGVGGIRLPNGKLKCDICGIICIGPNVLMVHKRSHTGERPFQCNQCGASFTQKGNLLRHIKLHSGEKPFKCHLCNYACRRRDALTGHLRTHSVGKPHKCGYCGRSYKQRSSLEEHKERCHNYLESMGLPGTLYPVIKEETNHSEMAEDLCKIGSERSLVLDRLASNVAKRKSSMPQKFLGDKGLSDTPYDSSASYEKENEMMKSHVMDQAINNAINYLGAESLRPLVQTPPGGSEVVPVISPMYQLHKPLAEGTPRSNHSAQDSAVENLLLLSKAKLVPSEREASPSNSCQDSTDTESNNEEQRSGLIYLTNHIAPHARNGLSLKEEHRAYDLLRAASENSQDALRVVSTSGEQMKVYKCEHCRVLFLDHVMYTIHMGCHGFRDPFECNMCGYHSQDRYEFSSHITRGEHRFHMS
T2 sequence (Q96SW2 whole entry): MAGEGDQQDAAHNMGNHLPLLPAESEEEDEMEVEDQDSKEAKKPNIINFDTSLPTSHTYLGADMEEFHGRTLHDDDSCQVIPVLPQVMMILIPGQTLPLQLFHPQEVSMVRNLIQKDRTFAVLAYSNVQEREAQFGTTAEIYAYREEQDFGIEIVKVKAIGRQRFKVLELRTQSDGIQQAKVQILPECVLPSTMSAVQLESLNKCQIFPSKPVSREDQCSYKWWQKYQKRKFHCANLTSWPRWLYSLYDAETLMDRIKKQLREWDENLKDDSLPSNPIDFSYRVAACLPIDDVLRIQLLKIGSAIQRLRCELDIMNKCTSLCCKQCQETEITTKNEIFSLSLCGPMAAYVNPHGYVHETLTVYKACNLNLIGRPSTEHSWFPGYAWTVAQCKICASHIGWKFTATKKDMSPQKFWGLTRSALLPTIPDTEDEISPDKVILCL
T2 sequence (Q16531 whole entry partner): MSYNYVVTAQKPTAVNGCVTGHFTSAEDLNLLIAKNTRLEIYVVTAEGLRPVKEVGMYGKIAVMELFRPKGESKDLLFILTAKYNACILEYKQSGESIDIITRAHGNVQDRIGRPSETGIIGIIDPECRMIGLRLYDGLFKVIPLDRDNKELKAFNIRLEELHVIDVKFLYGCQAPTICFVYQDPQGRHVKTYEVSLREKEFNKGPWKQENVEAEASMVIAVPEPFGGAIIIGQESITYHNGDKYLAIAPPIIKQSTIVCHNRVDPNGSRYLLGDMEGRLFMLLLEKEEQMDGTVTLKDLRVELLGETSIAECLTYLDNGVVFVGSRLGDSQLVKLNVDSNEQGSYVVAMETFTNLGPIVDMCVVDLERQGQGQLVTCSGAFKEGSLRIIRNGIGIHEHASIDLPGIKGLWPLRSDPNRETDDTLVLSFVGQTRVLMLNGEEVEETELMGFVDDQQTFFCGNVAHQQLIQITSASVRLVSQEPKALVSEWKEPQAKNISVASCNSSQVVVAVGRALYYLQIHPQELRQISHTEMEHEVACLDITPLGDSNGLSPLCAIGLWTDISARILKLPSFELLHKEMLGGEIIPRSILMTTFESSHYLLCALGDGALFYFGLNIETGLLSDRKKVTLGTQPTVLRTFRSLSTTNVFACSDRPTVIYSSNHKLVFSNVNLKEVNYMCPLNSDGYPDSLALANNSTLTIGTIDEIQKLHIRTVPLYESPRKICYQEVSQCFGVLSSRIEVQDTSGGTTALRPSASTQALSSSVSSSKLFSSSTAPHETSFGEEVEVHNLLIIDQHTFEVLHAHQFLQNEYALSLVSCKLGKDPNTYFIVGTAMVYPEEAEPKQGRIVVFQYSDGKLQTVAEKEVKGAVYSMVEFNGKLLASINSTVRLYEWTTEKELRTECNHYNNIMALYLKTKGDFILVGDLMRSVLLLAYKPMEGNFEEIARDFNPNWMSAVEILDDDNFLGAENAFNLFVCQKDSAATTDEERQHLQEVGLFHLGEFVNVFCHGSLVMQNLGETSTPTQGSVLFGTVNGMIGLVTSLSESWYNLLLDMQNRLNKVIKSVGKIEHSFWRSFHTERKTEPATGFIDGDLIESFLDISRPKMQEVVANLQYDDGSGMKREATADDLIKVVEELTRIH
T3 sequence (Q9UKS7 whole entry): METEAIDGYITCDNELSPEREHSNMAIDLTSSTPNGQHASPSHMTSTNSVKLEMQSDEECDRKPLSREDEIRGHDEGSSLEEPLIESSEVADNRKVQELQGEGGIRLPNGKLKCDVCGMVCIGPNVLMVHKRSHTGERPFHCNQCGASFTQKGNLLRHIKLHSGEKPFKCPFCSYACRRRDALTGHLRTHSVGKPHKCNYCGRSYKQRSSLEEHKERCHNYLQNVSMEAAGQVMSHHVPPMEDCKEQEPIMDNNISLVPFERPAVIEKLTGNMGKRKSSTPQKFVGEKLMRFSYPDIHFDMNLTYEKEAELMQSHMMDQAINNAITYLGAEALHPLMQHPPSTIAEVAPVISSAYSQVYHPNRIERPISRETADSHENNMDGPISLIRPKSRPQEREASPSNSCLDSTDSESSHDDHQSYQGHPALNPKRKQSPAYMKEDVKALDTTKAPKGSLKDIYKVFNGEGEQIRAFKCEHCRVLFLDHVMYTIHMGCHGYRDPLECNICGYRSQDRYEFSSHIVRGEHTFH
T3 sequence (Q96SW2 whole entry): as the sequence (Q96SW2 whole entry) above
T3 sequence (Q16531 whole entry partner): as the sequence (Q16531 whole entry partner) above
T4 sequence (Q9UKT9 whole entry): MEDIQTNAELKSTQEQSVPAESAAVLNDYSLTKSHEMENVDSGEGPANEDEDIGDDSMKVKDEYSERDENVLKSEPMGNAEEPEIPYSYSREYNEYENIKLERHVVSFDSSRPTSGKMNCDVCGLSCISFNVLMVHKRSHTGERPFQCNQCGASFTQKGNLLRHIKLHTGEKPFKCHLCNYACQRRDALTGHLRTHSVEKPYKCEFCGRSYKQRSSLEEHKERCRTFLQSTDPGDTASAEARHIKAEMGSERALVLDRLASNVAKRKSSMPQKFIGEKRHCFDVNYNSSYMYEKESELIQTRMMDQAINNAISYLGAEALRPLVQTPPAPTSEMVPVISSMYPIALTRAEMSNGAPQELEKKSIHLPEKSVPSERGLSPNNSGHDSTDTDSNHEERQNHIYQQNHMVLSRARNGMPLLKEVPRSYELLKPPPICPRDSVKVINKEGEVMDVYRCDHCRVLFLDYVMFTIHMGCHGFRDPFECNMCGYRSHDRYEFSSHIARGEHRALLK
T4 sequence (Q96SW2 whole entry): as the sequence (Q96SW2 whole entry) above
T4 sequence (Q16531 whole entry partner): as the sequence (Q16531 whole entry partner) above
T1 sequence (P48729 whole entry): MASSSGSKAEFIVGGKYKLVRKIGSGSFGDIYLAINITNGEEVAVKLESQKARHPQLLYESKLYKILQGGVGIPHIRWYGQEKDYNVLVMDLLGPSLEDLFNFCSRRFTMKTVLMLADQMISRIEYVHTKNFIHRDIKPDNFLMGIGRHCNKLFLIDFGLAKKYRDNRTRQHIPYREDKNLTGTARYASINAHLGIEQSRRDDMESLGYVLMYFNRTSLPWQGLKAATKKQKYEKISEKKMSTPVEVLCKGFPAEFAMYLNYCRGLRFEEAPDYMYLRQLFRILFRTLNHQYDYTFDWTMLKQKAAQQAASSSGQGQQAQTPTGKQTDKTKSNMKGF
T1 sequence (Q96SW2 whole entry): as the sequence (Q96SW2 whole entry) above
T1 sequence (Q16531 whole entry partner): as the sequence (Q16531 whole entry partner) above
T5 sequence (P30291 whole entry): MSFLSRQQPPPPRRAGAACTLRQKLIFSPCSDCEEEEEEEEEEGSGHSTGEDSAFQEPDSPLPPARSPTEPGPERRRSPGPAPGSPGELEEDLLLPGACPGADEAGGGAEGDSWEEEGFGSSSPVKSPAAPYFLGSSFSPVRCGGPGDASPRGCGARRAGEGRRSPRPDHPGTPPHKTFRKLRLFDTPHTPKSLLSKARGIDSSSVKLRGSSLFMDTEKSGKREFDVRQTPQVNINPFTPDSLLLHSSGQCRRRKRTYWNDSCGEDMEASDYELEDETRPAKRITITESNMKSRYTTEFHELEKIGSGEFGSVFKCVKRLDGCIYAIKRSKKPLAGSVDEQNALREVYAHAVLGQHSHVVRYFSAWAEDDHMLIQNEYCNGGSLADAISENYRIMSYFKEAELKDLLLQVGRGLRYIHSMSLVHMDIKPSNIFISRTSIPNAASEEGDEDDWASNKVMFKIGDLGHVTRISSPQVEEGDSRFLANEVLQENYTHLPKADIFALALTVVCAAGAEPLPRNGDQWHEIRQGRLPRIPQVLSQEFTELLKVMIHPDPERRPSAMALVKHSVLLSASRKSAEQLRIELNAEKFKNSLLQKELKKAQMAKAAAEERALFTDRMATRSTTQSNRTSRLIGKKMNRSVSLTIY
T5 sequence (Q96SW2 whole entry): as the sequence (Q96SW2 whole entry) above
T5 sequence (Q16531 whole entry partner): as the sequence (Q16531 whole entry partner) above
T6 sequence (Q96SW2 whole entry): as the sequence (Q96SW2 whole entry) above

Regarding `Cn1cc(C2=CCN(Cc3ccc4c(c3)CN(C3CCC(=O)NC3=O)C4=S)CC2)c2ccc(F)cc21` (stereo not drawn) [GT-05247, 3-(5-((4-(6-fluoro-1-methyl-1H-indol-3-yl)-3,6-dihydropyridin-1(2H)-yl)methyl)-1-thioxoisoindolin-2-yl)piperidine-2,6-dione], the “CK1α substrate protein remaining %” value on CK1α is on record as “A (0% ≤ substrate protein remaining % ≤ 80%)”. For the same molecule, on IKZF1, the “IKZF 1 substrate protein remaining %” value was “B (80%< substrate protein remaining %≤ 100%)”. The “IKZF2 substrate protein remaining %” value at IKZF2 is “A (0% ≤ substrate protein remaining % ≤ 80%)”. The “IKZF3 substrate protein remaining %” value on IKZF3 is on record as “A (0% ≤ substrate protein remaining % ≤ 80%)”. The “Wee1 substrate protein remaining %” value at WEE1 is “A (0% ≤ substrate protein remaining % ≤ 80%)”. For the same molecule, in the assay on GSPT1, the “GSPT1 substrate protein remaining %” value was “A (0% ≤ substrate protein remaining % ≤ 80%)”. Moreover, the IC50 in assay [1] is 100 to 500 nM; in assay [2] it was less than 5 nM; in assay [3], 10 to 50 nM; in assay [4] it was 100 to 500 nM.

Take `Nc1cccc2c1C(=O)N(C1CCC(=O)NC1=O)C2=O` (stereo not drawn) [pomalidomide, reference compound]: the IC50 in [2] was 500 to 1000 nM; in [3], 1000 to 5000 nM; in assay [6] (read-out: Inhibitory activity (IC50, nM) on tumor cell proliferation, MCF7) it was greater than 10000 nM; in assay [9] (read-out: Inhibitory activity (IC50, nM) on tumor cell proliferation, Jurkat) it was greater than 10000 nM; in assay [13] it was greater than 10000 nM; in assay [14], 5000 to 10000 nM. Further, the IC50 in assay [15] and in assay [4] was greater than 10000 nM in each case. Further, the inhibition (in general, the relative decrease from the control value, in per cent) at 0.01 µM in assay [3] (setting [16]) is 10 to 20%; in assay [5] (setting [16]) it was 18 to 25%; in [6] (setting [16]), 5 to 10%; in assay [7] (setting [16]), 0 to 5%; in assay [8] (setting [16]), -10 to -5%; in [9] (setting [16]), 10 to 20%. Further, the inhibition at 0.01 µM in assay [10] (setting [16]) lay within 10 to 20%; in assay [11] (setting [16]) it was 20 to 30%; in [12] (setting [16]), 10 to 20%. Moreover, the inhibition at 0.5 µM in assay [3] (setting [17]) is 30 to 40%; in [5] (setting [17]) it was 10 to 18%; in assay [6] (setting [17]) it was 0 to 5%; in assay [7] (setting [17]) it was 0 to 5%; in assay [8] (setting [17]), -5 to 0%; in assay [9] (setting [17]), 10 to 20%. The inhibition at 0.5 µM in [10] (setting [17]) lay in the range of 10 to 20%; in [11] (setting [17]), 20 to 30%; in assay [12] (setting [17]), 5 to 10%.

(Values after patent EP4745135A1 (Gluetacs Therapeutics (Shanghai) Co., Ltd., priority 2023, dated 2025).)
